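The compound was tested at five concentrations on cells cultured in 96-well plates, with a 48-hour exposure period. The concentration for 50% growth inhibition is given as GI50. Definition used: TGI = concentration required for complete inhibition of growth.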
Experiments:
Assay in all cases: inhibition of tumour cell growth, NCI panel, 48 h
SF-539 CNS = test system: SF-539 CNS
LOX IMVI melanoma = test system: LOX IMVI melanoma
SF-295 CNS = test system: SF-295 CNS
OVCAR-3 ovarian = test system: OVCAR-3 ovarian
UO-31 renal = test system: UO-31 renal
HOP-92 NSCLC = test system: HOP-92 NSCLC
NCI/ADR-RES ovarian = test system: NCI/ADR-RES ovarian
U251 CNS = test system: U251 CNS
HL-60(TB) leukemia = test system: HL-60(TB) leukemia
MOLT-4 leukemia = test system: MOLT-4 leukemia

| SMILES | TGI (SF-539 CNS) | TGI (LOX IMVI melanoma) | TGI (SF-295 CNS) | TGI (OVCAR-3 ovarian) | TGI (UO-31 renal) | TGI (HOP-92 NSCLC) | TGI (NCI/ADR-RES ovarian) | TGI (U251 CNS) | TGI (HL-60(TB) leukemia) | TGI (MOLT-4 leukemia) | GI50 (SF-539 CNS) | GI50 (LOX IMVI melanoma) | GI50 (SF-295 CNS) | GI50 (OVCAR-3 ovarian) | GI50 (UO-31 renal) | GI50 (NCI/ADR-RES ovarian) | GI50 (U251 CNS) | GI50 (HL-60(TB) leukemia) | GI50 (MOLT-4 leukemia) | GI50 (HOP-92 NSCLC) |
| --- | --- | --- | --- | --- | --- | --- | --- | --- | --- | --- | --- | --- | --- | --- | --- | --- | --- | --- | --- | --- |
| Cc1c2c(C(N)=O)nccc2c(C)c2c1c1ccccc1n2Cc1ccccc1 | 37.7 µM | 19.7 µM | 31.2 µM | 21.1 µM | 37.6 µM | 25.1 µM | 27.9 µM | 24.9 µM | 47 µM | 62.9 µM | – | – | – | – | – | – | – | – | – | – |
| Cc1ccc2occ/c(=N\Nc3ccccc3)c2c1 | > 100 µM | > 100 µM | > 100 µM | > 100 µM | > 100 µM | 97.4 µM | > 100 µM | > 100 µM | > 100 µM | – | – | – | – | – | – | – | – | – | – | – |
| CC(C)(C)c1cc(C(=O)/C=C/c2ccc(C(=O)O)cc2)cc(C(C)(C)C)c1 | 2.97 µM | 8.54 µM | 7.29 µM | 7.31 µM | 17.8 µM | 19.7 µM | 6.8 µM | 11.2 µM | > 100 µM | 8.31 µM | – | – | – | – | – | – | – | – | – | – |
| CC1=NC(C)(COC(=O)C2(C)NC(C)(CO)CO2)COC1=O (configuration not stated) | > 100 µM | > 100 µM | > 100 µM | > 100 µM | > 100 µM | > 100 µM | > 100 µM | > 100 µM | > 100 µM | > 100 µM | – | – | – | – | – | – | – | – | – | – |
| NC(N)=N/N=C(\N=Nc1ccccc1)c1ccc(Cl)cc1 | 8.1 µM | 3.54 µM | 6.39 µM | 7.24 µM | 6.34 µM | – | 10.4 µM | 7.55 µM | 3.85 µM | 6.16 µM | 2.98 µM | 1.18 µM | 1.82 µM | 2.8 µM | 2.29 µM | 2.76 µM | 2.39 µM | 1.88 µM | 2.35 µM | – |
| C=C1C(=O)OC2C1CC(OC(C)=O)/C(C)=C/CCC1(C)OC21 (configuration not stated) | > 100 µM | > 100 µM | > 100 µM | > 100 µM | > 100 µM | > 100 µM | > 100 µM | > 100 µM | > 100 µM | > 100 µM | – | – | – | – | – | – | – | – | – | – |
| COC(=O)[C@]12CC[C@@H](C)[C@H](C)[C@@H]1C1=CC[C@@H]3[C@@]4(C)C(C=O)=C[C@@](C)(COC(=O)c5ccco5)[C@@H]4[C@H](O)C[C@@]3(C)[C@]1(C)CC2 | 3.93 µM | 2.94 µM | 4.69 µM | 3.73 µM | 3.48 µM | 4.27 µM | 12 µM | 2.91 µM | 5.84 µM | 7.5 µM | 1.89 µM | 1.57 µM | 1.95 µM | 1.87 µM | 1.66 µM | 2.76 µM | 1.41 µM | 2.33 µM | 2.29 µM | 1.56 µM |
| CC1(C)N=C(N)N=C(N)N1c1cccc(OCCOc2cccc([N+](=O)[O-])c2)c1 | > 100 µM | > 100 µM | > 100 µM | > 100 µM | > 100 µM | 73.5 µM | > 100 µM | > 100 µM | > 77.8 µM | > 100 µM | 3.41 µM | 2.15 µM | 15 µM | 5.13 µM | > 100 µM | > 100 µM | 0.808 µM | 1.18 µM | 2.45 µM | 3.51 µM |
| COc1ccc(-c2ccc(NNC(=O)c3ccc(F)cc3)nn2)cc1OC | > 100 µM | > 100 µM | > 100 µM | > 100 µM | > 100 µM | 99.3 µM | > 100 µM | > 100 µM | > 100 µM | > 100 µM | > 100 µM | 67.6 µM | > 100 µM | 79.7 µM | 31.7 µM | 43.2 µM | > 100 µM | 33.5 µM | 40.6 µM | 17.8 µM |
| N#CC(C#N)=C1CCCOc2c1ccc1ccccc21 | > 100 µM | – | > 100 µM | > 100 µM | > 100 µM | 71.7 µM | > 100 µM | – | 36 µM | 51 µM | > 100 µM | – | > 100 µM | > 100 µM | > 100 µM | > 100 µM | – | 16.7 µM | 19.5 µM | 15.8 µM |
| COc1cc(/C=C/C(=O)Oc2ccccc2)ccc1C(=O)O/C=C/c1ccccc1 | > 100 µM | > 100 µM | > 100 µM | > 31.6 µM | > 100 µM | > 100 µM | > 100 µM | > 100 µM | > 100 µM | > 100 µM | – | – | – | – | – | – | – | – | – | – |
| CC(=O)NC1CONC1=O (configuration not stated) | > 100 µM | > 100 µM | > 100 µM | > 100 µM | > 100 µM | > 100 µM | > 100 µM | > 100 µM | > 100 µM | > 100 µM | – | – | – | – | – | – | – | – | – | – |
| CS(=O)(=O)CS(=O)(=O)OCCCl | 266 µM | 497 µM | 554 µM | 983 µM | 1080 µM | 824 µM | 1960 µM | 664 µM | 541 µM | 629 µM | – | – | – | – | – | – | – | – | – | – |
| CCOC(=O)c1sc(NC(=O)COc2cccc(/C=C3\CCc4cc(OC)ccc4C3=O)c2)nc1C | 7.58 µM | 15.7 µM | > 100 µM | 6.71 µM | > 100 µM | 36.9 µM | > 100 µM | 9.13 µM | 4.92 µM | 12.2 µM | 2.1 µM | 3.87 µM | 5.45 µM | 3.19 µM | 5.99 µM | 4.84 µM | 2.98 µM | 1.94 µM | 2.94 µM | 16.9 µM |
| C=CCn1c(SCC(=O)Nc2ccc(C(=O)/C=C/c3cc(OC)c(OC)c(OC)c3)cc2)nnc1-c1ccc(OC)cc1 | 0.666 µM | 1.03 µM | 4.88 µM | 1.02 µM | – | 16.4 µM | 17.6 µM | 0.939 µM | – | > 100 µM | 0.248 µM | 0.28 µM | 0.9 µM | 0.343 µM | – | 1.45 µM | 0.289 µM | 0.473 µM | 0.378 µM | 2.25 µM |
| Cc1noc2c1-c1ccccc1C(c1ccc(Cl)cc1)=N[C@H]2CC(N)=O | > 100 µM | > 100 µM | > 100 µM | > 100 µM | > 100 µM | > 100 µM | > 100 µM | > 100 µM | > 33.8 µM | > 100 µM | 5.17 µM | 2.3 µM | 4.71 µM | 3.75 µM | 0.283 µM | 2.74 µM | 20 µM | 0.398 µM | 7.71 µM | 0.54 µM |
| c1ccc2c(c1)c1ccccc1c1ccccc21 | > 100 µM | > 100 µM | – | > 100 µM | > 100 µM | > 100 µM | > 100 µM | > 100 µM | > 100 µM | > 100 µM | > 100 µM | > 100 µM | – | > 100 µM | > 100 µM | > 100 µM | > 100 µM | > 100 µM | 77.3 µM | > 100 µM |
| Oc1ccc(N=Nc2nccs2)c(O)c1 | 28.9 µM | 18.7 µM | 15.1 µM | 7.37 µM | 21.8 µM | 24.7 µM | 9.1 µM | 35.2 µM | > 100 µM | 20.3 µM | 6.66 µM | 3.28 µM | 2.73 µM | 2.4 µM | 3.51 µM | 2.58 µM | 4.5 µM | 3.41 µM | 3.1 µM | 3.34 µM |
| COc1cc(OC)c2sc(-c3ccc(-n4cncc4-c4cc(OC)c(OC)c(OC)c4)cc3)nc2c1 | > 100 µM | > 100 µM | > 100 µM | > 100 µM | > 100 µM | – | > 100 µM | > 100 µM | > 100 µM | > 100 µM | 8.59 µM | 5.4 µM | 4.42 µM | 3.26 µM | 2.27 µM | 5.65 µM | 4.15 µM | 3.3 µM | 4.24 µM | – |
| NCCCOc1cc2ccccc2cc1C(=O)NCCCOc1cc2ccccc2cc1C(=O)Nc1ccc(Cl)cc1O | 2.57 µM | 1.78 µM | – | 3.49 µM | 1.78 µM | – | 6.01 µM | 0.35 µM | 2.2 µM | 1.54 µM | 1.05 µM | 0.436 µM | – | 1.81 µM | 0.355 µM | 1.22 µM | 0.187 µM | 0.512 µM | 0.314 µM | – |
| CCc1nc(Cl)c(Cl)c(Cl)n1 | > 100 µM | > 100 µM | > 100 µM | > 100 µM | > 100 µM | – | > 100 µM | > 100 µM | > 100 µM | > 100 µM | – | – | – | – | – | – | – | – | – | – |
| COc1cc(/C=C/C(=O)C(C(=O)/C=C/c2ccc(OC(=O)CCNC34CC5CC(CC(C5)C3)C4)c(OC)c2)C(=O)CCNC23CC4CC(CC(C4)C2)C3)ccc1OC(=O)CCNC12CC3CC(CC(C3)C1)C2 (configuration not stated) | 5.01 µM | 3.94 µM | 34.4 µM | > 100 µM | 18.7 µM | 31.4 µM | 90.2 µM | 11.3 µM | 4.36 µM | – | 2.27 µM | 1.98 µM | 17.2 µM | 4.98 µM | 2.71 µM | 4.82 µM | 3.25 µM | 1.95 µM | – | 4.75 µM |
| Oc1ccc(Oc2cnc3ccccc3n2)cc1 | > 100 µM | > 100 µM | > 100 µM | > 100 µM | > 100 µM | – | > 100 µM | > 100 µM | > 100 µM | > 100 µM | 77.2 µM | > 100 µM | 38.2 µM | > 100 µM | 66.6 µM | > 100 µM | > 100 µM | 26.3 µM | 41.4 µM | – |
